Data taken from patent US20220218778A1, “COMPOSITION FOR REDUCING BODY FAT COMPRISING GREEN TEA EXTRACT CONTAINING GALLOCATECHIN GALLATE AS AN ACTIVE INGREDIENT AND MANUFACTURING METHOD THEREOF” (AMOREPACIFIC CORPORATION, priority 2021, published 2022).

Legend:
Format in all cases: cell-based, Mouse
[1] = test system: brown adipocyte-associated markers (Ucp1, Cidea, Cox8b, Dio2, Elovl3, Pgc1a, Prdm16); test: Brown adipocyte-associated marker gene expression (qPCR) in adipocytes; conditions: FIG. 14; GCG 0.1, 1, 5, 10 or 20 μM; 24 hours
From the text: After extracting RNA using Trizol™ reagent (Thermo Fisher Scientific), cDNA was synthesized using a RevertAid™ 1st strand cDNA synthesis kit (Thermo Fisher Scientific). Then, the expression level of target genes was quantified by CFX96 real-time quantitative PCR (qPCR; Bio-Rad) using a housekeeping gene (cyclophilin).

3T3-L1 adipocytes [2] = test: Oxygen consumption rate (XF analyzer) in adipocytes; conditions: FIG. 18; 20 μM GCG, 24 hours; with oligomycin, FCCP, rotenone/antimycin A; normalized to protein
Protocol: Mouse-derived 3T3-L1 adipocytes (American Type Culture Collection, ATCC) were cultured in an incubator using DMEM (Dulbecco's modified Eagle's medium; Sigma-Aldrich) containing 10% bovine calf serum (BCS; HyClone) and 1% penicillin/streptomycin (P/S; Sigma-Aldrich) under a standard condition (37° C., 5% CO2). For cellular differentiation, 48 hours after the cells were filled 100% on a plate, they were cultured again for 48 hours after replacing the medium with DMEM supplemented with 10% fetal bovine serum (FBS; Hyclone), 1% P/S, 0.5 mM 3-isobutyl-1-methylxanthine (IBMX; Sigma-Aldrich), 1 μM dexamethasone (Sigma-Aldrich) and 5 μg/mL insulin (Sigma-Aldrich). Then, differentiation of adipocytes was induced by culturing the cells additionally for 10 days while replacing the medium with a medium supplemented with 10% FBS, 5 μg/mL insulin and 1% P/S at two-day intervals.
The adipocytes differentiated as in Reference Example 1 were treated with 20 μM gallocatechin gallate (GCG), which is contained in large quantities particularly in the heat-transformed green tea extract (HTGT) (Table 2), for 24 hours. A negative control group was treated with a vehicle (distilled water).
Then, oxygen level and oxygen consumption rate (OCR) were measured using an XF analyzer (Agilent, Santa Clara, Calif., USA). […]

3T3-L1 adipocytes [3] = test: Triglyceride degradation in adipocytes (glycerol quantification); conditions: FIG. 9; HTGT 10, 50 or 100 μg/mL, IBMX 500 μM; 4 hours

Compound | expression of Elovl3 [1] | expression of Prdm16 [1] | expression of uncoupling protein 1 (Ucp1) [1] | oxygen consumption rate (OCR) (3T3-L1 adipocytes [2]) | degradation of triglycerides in adipocytes (glycerol produced) (3T3-L1 adipocytes [3])
O=C(O[C@@H]1Cc2c(O)cc(O)cc2O[C@H]1c1cc(O)c(O)c(O)c1)c1cc(O)c(O)c(O)c1 [GCG, gallocatechin gallate] | increased the expression of the fat degradation-associated Elovl3 | not changed significantly | increased the expression | increased OCR | 
CC(C)Cn1c(=O)n(C)c(=O)c2[nH]cnc21 [IBMX, 3-isobutyl-1-methylxanthine] |  |  |  |  | facilitating the degradation of triglycerides in adipocytes
